One data set addresses T1, ACAT2 (Mus musculus, UniProt O88908).
T1 construct: The resulting sediment was collected as a microsome fraction; from tissue; host or cells: mouse liver (hepatic microsome membrane fraction)
T1 sequence (O88908 1-525): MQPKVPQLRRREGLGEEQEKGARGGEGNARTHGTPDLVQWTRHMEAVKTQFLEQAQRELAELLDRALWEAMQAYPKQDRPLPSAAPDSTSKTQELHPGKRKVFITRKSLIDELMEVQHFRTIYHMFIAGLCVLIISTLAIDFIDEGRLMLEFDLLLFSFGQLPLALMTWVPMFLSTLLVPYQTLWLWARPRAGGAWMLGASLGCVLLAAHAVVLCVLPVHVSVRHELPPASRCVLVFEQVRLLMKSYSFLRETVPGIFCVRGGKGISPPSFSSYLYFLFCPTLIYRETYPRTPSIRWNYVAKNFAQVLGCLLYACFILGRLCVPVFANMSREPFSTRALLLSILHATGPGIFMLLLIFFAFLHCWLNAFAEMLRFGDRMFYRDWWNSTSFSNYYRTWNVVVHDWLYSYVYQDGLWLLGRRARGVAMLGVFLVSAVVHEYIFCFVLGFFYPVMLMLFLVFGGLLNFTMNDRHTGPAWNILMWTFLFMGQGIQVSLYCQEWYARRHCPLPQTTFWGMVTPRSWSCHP
The data set can be described thus: Measurement of ACAT2-inhibiting activity (murine hepatic microsome, [14C]cholesteryl oleate formation). It counts as biochemical. The conditions noted are these: for IC50: murine hepatic microsome membrane fraction, 5 min at 37° C., read-out: Inhibitory activity (concentration required for 50% inhibition of ACAT 2 = IC50); for Specific activity ((IC50 of the test compound)/(IC50 of PRD 043)): relative to PRD 043, class symbols. The protocol: The enzyme source which was used was a membrane fraction derived from murine hepatic microsome. Mouse livers were homogenized in buffer solution A (50 mM Tris HCl solution (pH 7.8), 1 mM ethylene diamine tetraacetate, and 1 mM phenylmethanesulfonyl fluoride) using a Potter-type homogenizer (Tokyo-Riko). The homogenate was centrifuged at 12000×g, and the supernatant was subjected to ultracentrifugation at 100000×g. The resulting sediment was collected as a microsome fraction, and this fraction was adjusted so as to have a protein concentration of 5 mg/mL using buffer solution A.
As a control, 10 μL of methanol were used in place of the pyripyropene derivative.
The chloroform layer was evaporated to dryness and was used to spot a thin layer chromatography plate (silica gel plate, Merck, 0.5 mm thickness). Elution for separation was carried out using hexane/diethyl ether/acetic acid (70:30:1, v/v) as an eluant.
wherein the background is the radioactivity of a thin layer chromatography plate which was not spotted.

Data set [1] is described as follows: Stability against metabolizing enzymes in the liver (hepatic microsome). The conditions noted are these: time until remaining amount reached 50%, 37° C.; for half-life at 6 μg/mL: female, Sprague-Dawley (SD), rat, liver microsomes, pH 7.4, Half-life; for Half-life: female SD rat hepatic microsome, 6 μg/mL, pH 7.4.

The values that follow come from patent publication US9187492B2, “Pyripyropene derivative having ACAT2 inhibiting activity and stable to metabolizing enzymes” (School Juridical Person Kitasato Institute, priority 2010, dated 2015).

Structures are written as SMILES. Where only a bound is given, the exact number is not on record here.

With `Cc1ccccc1[C@@H]1OCC2(C)C3C[C@H](OC(=O)c4ccc(C#N)cc4)[C@@]4(C)Oc5cc(-c6cccnc6)oc(=O)c5[C@H](O)C4[C@@]3(C)CC[C@@H]2O1` (stereo partly shown) [PRD125, 1,11-O-o-methylbenzylidene-7-O-p-cyanobenzoyl-1,7,11-trideacetylpyripyropene A], at ACAT2, the IC50 lay within 0.5 to 1 nM and the “Specific activity ((IC50 of the test compound)/(IC50 of PRD 043))” value (shortened to “Specific activity”) was “+++ (10<specific activity≦20)”. Moreover, in data set [1], the half-life (as a rule, the time needed for the level to fall by half in the phase considered) at 6 μg/mL is at least 9 h and the Half-life is reported as over 9 h.

Consider `Cc1ccc([C@@H]2OCC3(C)C4C[C@H](OC(=O)c5ccc(C#N)cc5)[C@@]5(C)Oc6cc(-c7cccnc7)oc(=O)c6[C@H](O)C5[C@@]4(C)CC[C@@H]3O2)cc1` (stereo partly shown) [PRD126, 1,11-O-p-methylbenzylidene-7-O-p-cyanobenzoyl-1,7,11-trideacetylpyripyropene A], for which, at ACAT2, the IC50 was 0.5 to 1 nM and the “Specific activity” value was “+++ (10<specific activity≦20)”. Moreover, in data set [1], the half-life at 6 μg/mL was at least 9 h and the Half-life is over 9 h.

Turning to `CC(=O)O[C@H]1CC[C@@]2(C)C(C[C@H](OC(=O)c3ccc(C#N)cc3)[C@@]3(C)Oc4cc(-c5cccnc5)oc(=O)c4[C@H](O)C23)C1(C)COC(=O)c1ccccc1` (stereo partly shown) [PRD143, 7-O-p-cyanobenzoyl-7,11-dideacetyl-11-O-benzoylpyripyropene A], on ACAT2, the IC50 is 0.5 to 1 nM and the “Specific activity” value is on record as “+++ (10<specific activity≦20)”. In data set [1], this compound came in with a half-life at 6 μg/mL of at least 9 h and a Half-life of over 9 h.

Take `Cc1ccccc1[C@@H]1OCC2(C)C3C[C@H](OC(=O)c4ccc(F)cc4)[C@@]4(C)Oc5cc(-c6cccnc6)oc(=O)c5[C@H](O)C4[C@@]3(C)CC[C@@H]2O1` (stereo partly shown) [PRD155, 1,11-O-o-methylbenzylidene-7-O-p-fluorobenzoyl-1,7,11-trideacetylpyripyropene A]: at ACAT2, the IC50 was 0.5 to 1 nM and the “Specific activity” value is given as “+++ (10<specific activity≦20)”. In data set [1], this compound registered a half-life at 6 μg/mL of at least 9 h and a Half-life of over 9 h.

As for `Cc1ccc([C@@H]2OCC3(C)C4C[C@H](OC(=O)c5ccc(F)cc5)[C@@]5(C)Oc6cc(-c7cccnc7)oc(=O)c6[C@H](O)C5[C@@]4(C)CC[C@@H]3O2)cc1` (stereo partly shown) [PRD156, 1,11-O-p-methylbenzylidene-7-O-p-fluorobenzoyl-1,7,11-trideacetylpyripyropene A], at ACAT2, the IC50 is under 0.5 nM and the “Specific activity” value was “++++ (20<specific activity)”. In data set [1], this compound yielded a half-life at 6 μg/mL of at least 9 h and a Half-life of over 9 h.

For `Cc1cccc(C2OCC3(C)C(CCC4(C)C3CC(OC(=O)c3ccc(C#N)cc3)C3(C)Oc5cc(-c6cccnc6)oc(=O)c5C(O)C43)O2)c1` (stereo not shown) [PRD157, 1,11-O-m-methylbenzylidene-7-O-p-cyanobenzoyl-1,7,11-trideacetylpyripyropene A], on ACAT2, the IC50 is under 0.5 nM and the “Specific activity” value was “++++ (20<specific activity)”. Moreover, in data set [1], the half-life at 6 μg/mL is at least 9 h and the Half-life is on record as over 9 h.

Regarding `Cc1cccc([C@@H]2OCC3(C)C4C[C@H](OC(=O)c5ccc(F)cc5)[C@@]5(C)Oc6cc(-c7cccnc7)oc(=O)c6[C@H](O)C5[C@@]4(C)CC[C@@H]3O2)c1` (stereo partly shown) [PRD158, 1,11-O-m-methylbenzylidene-7-O-p-fluorobenzoyl-1,7,11-trideacetylpyripyropene A], at ACAT2, the IC50 is 1 to 10 nM and the “Specific activity” value is given as “+++ (10<specific activity≦20)”. In data set [1], this compound showed a half-life at 6 μg/mL of at least 9 h and a Half-life of over 9 h.

Turning to `Cc1ccc([C@@H]2OCC3(C)C4C[C@H](OC(=O)c5ccc(C#N)cc5)[C@@]5(C)Oc6cc(-c7cccnc7)oc(=O)c6[C@H](O)C5[C@@]4(C)CC[C@@H]3O2)c(C)c1` (stereo partly shown) [PRD159, 1,11-O-o,p-dimethylbenzylidene-7-O-p-cyanobenzoyl-1,7,11-trideacetylpyripyropene A], at ACAT2, the IC50 fell in the range of 0.5 to 1 nM and the “Specific activity” value is “+++ (10<specific activity≦20)”. Moreover, in data set [1], the half-life at 6 μg/mL was at least 9 h and the Half-life was over 9 h.

On to `Cc1ccc([C@@H]2OCC3(C)C4C[C@H](OC(=O)c5ccc(F)cc5)[C@@]5(C)Oc6cc(-c7cccnc7)oc(=O)c6[C@H](O)C5[C@@]4(C)CC[C@@H]3O2)c(C)c1` (stereo partly shown) [PRD160, 1,11-O-o,p-dimethylbenzylidene-7-O-p-fluorobenzoyl-1,7,11-trideacetylpyripyropene A], for which, at ACAT2, the IC50 lay within 0.5 to 1 nM and the “Specific activity” value is on record as “+++ (10<specific activity≦20)”. Further, in data set [1], the half-life at 6 μg/mL is at least 9 h and the Half-life is given as over 9 h.

Consider `COc1ccccc1[C@@H]1OCC2(C)C3C[C@H](OC(=O)c4ccc(C#N)cc4)[C@@]4(C)Oc5cc(-c6cccnc6)oc(=O)c5[C@H](O)C4[C@@]3(C)CC[C@@H]2O1` (stereo partly shown) [PRD161, 1,11-O-o-methoxybenzylidene-7-O-p-cyanobenzoyl-1,7,11-trideacetylpyripyropene A], for which, on ACAT2, the IC50 is 0.5 to 1 nM and the “Specific activity” value is on record as “+++ (10<specific activity≦20)”. In data set [1], this compound displayed a half-life at 6 μg/mL of at least 9 h and a Half-life of over 9 h.

As for `COc1ccccc1[C@@H]1OCC2(C)C3C[C@H](OC(=O)c4ccc(F)cc4)[C@@]4(C)Oc5cc(-c6cccnc6)oc(=O)c5[C@H](O)C4[C@@]3(C)CC[C@@H]2O1` (stereo partly shown) [PRD162, 1,11-O-o-methoxybenzylidene-7-O-p-fluorobenzoyl-1,7,11-trideacetylpyripyropene A], on ACAT2, the IC50 was in the range of 1 to 10 nM and the “Specific activity” value is reported as “+++ (10<specific activity≦20)”. Further, in data set [1], the half-life at 6 μg/mL is at least 9 h and the Half-life is listed as over 9 h.

Turning to `CC12CO[C@@H](c3ccccc3F)O[C@H]1CC[C@@]1(C)C2C[C@H](OC(=O)c2ccc(C#N)cc2)[C@@]2(C)Oc3cc(-c4cccnc4)oc(=O)c3[C@H](O)C12` (stereo partly shown) [PRD163, 1,11-O-o-fluorobenzylidene-7-O-p-cyanobenzoyl-1,7,11-trideacetylpyripyropene A], at ACAT2, the IC50 fell in the range of 0.5 to 1 nM and the “Specific activity” value was “+++ (10<specific activity≦20)”. For the same compound, in data set [1], the half-life at 6 μg/mL was at least 9 h and the Half-life is reported as over 9 h.

On to `CC12CO[C@@H](c3ccccc3F)O[C@H]1CC[C@@]1(C)C2C[C@H](OC(=O)c2ccc(F)cc2)[C@@]2(C)Oc3cc(-c4cccnc4)oc(=O)c3[C@H](O)C12` (stereo partly shown) [PRD164, 1,11-O-o-fluorobenzylidene-7-O-p-fluorobenzoyl-1,7,11-trideacetylpyripyropene A], for which, at ACAT2, the IC50 was in the range of 0.5 to 1 nM and the “Specific activity” value is “+++ (10<specific activity≦20)”. Also, in data set [1], the half-life at 6 μg/mL is at least 9 h and the Half-life was over 9 h.

In the case of `CC1(COC(=O)c2ccccc2)C2C[C@H](OC(=O)c3ccc(C#N)cc3)[C@@]3(C)Oc4cc(-c5cccnc5)oc(=O)c4[C@H](O)C3[C@@]2(C)CC[C@@H]1OC(=O)c1ccccc1` (stereo partly shown) [PRD166, 7-O-p-cyanobenzoyl-1,11-O-dibenzoyl-1,7,11-trideacetylpyripyropene A], at ACAT2, the IC50 lay in the range of 0.5 to 1 nM and the “Specific activity” value was “+++ (10<specific activity≦20)”. In data set [1], this compound had a half-life at 6 μg/mL of at least 9 h and a Half-life of over 9 h.

For `CCCCCC(=O)OCC1(C)C2C[C@H](OC(=O)c3ccc(C#N)cc3)[C@@]3(C)Oc4cc(-c5cccnc5)oc(=O)c4[C@H](O)C3[C@@]2(C)CC[C@@H]1OC(=O)CCCCC` (stereo partly shown) [PRD167, 7-O-p-cyanobenzoyl-1,11-O-dihexanoyl-1,7,11-trideacetylpyripyropene A], at ACAT2, the IC50 is 0.5 to 1 nM and the “Specific activity” value is “+++ (10<specific activity≦20)”. In data set [1], the half-life at 6 μg/mL was at least 9 h and the Half-life is over 9 h.

On to `CC(=O)O[C@H]1CC[C@@]2(C)C(C[C@H](OC(C)=O)[C@@]3(C)Oc4cc(-c5cccnc5)oc(=O)c4[C@H](O)C23)C1(C)COC(=O)c1ccccc1` (stereo partly shown) [PRD177, 11-O-benzoyl-11-deacetylpyripyropene A], for which, at ACAT2, the IC50 fell in the range of 1 to 10 nM and the “Specific activity” value is listed as “+++ (10<specific activity≦20)”. In addition, in data set [1], the half-life at 6 μg/mL was at least 9 h and the Half-life is reported as over 9 h.
